Activity calls are given as the source filed them. The rule behind the calls is not given here.
Tests used:
[1] = system: A549; experiment: Antitumor activity against human A549 cells xenografted in BALB/C mouse assessed as reduction in tumor size at 25 mg/kg, ip bid for 21 days measured at 3 days interval during compound dosing by visual analysis; assay type: functional, organism-based
[2] = system: SMMC-7721; experiment: Cell cycle arrest in human SMMC7721 cells assessed as accumulation at G2/M phase incubated for 48 hrs by propidium iodide staining-based flow cytometry; assay type: functional

COc1ccc2c(=O)n(C)c(SCc3ccc(C(=O)Nc4ccccc4N)cc3)nc2c1 was tested, and the Activity [1] was “Active” and the Activity [2] was “Dose-dependent effect”.

Source: ChEMBL document CHEMBL4393680, “Design, synthesis and biological evaluation of novel thioquinazolinone-based 2-aminobenzamide derivatives as potent histone deacetylase (HDAC) inhibitors” (Eur J Med Chem, 2019)
